US8859580B2 (Boehringer Ingelheim International GmbH, priority 2007, dated 2014)

Biological target: T1, 11β-HSD1 (Homo sapiens, UniProt P28845)
T1 construct: detecting cortisol generated from cortisterone by human liver microsomes; from tissue; host or cells: human liver microsomes
Experiment: In vitro inhibition of 11β-HSD1, HTRF detection of cortisol generated from cortisone by human liver microsomes
Assay type: biochemical
Conditions: 11β-HSD IC50 (nM), 1 hour at 37° C., pH 6.0, NADPH 200 μM, cortisone 80 nM, inhibition relative to carbenoxolone signal
Procedure, shortened: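 Cortisol formed from cortisone by human liver microsomes quantified by competitive HTRF immunoassay (XL665-cortisol, Eu-cryptate anti-cortisol antibody), 2 h detection, Em665/Em615 ratio converted via cortisol calibration curve. Percent inhibition relative to carbenoxolone signal; IC50 from curves.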

T1 sequence (P28845 whole entry): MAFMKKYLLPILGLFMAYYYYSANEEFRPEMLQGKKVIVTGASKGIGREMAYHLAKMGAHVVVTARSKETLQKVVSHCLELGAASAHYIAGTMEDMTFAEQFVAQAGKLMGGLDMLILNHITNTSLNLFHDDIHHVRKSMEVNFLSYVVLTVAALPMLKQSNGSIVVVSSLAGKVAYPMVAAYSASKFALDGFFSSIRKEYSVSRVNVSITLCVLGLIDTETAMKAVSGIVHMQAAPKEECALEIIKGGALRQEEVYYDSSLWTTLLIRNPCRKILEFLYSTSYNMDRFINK

Q: For CCn1cc(C(=O)N2CC[C@@]3(C)c4cccc(O)c4C[C@@H]2C3(C)C)c2ccccc21 [Example 222, (1-Ethyl-1H-indol-3-yl)-[(2R,6S)-10-hydroxy-6,11,11-trimethyl-1,2,5,6-tetrahydro-4H-2,6-methano-benzo[d]azocin-3-yl]-methanone], which IC50 is on record?
A: The IC50 was 124 nM.

Q: Which IC50 does the source give for CC(=O)N1CCC(c2nc3cc4c(cc3[nH]2)[C@]2(C)CCN(C(=O)c3ccc5nc[nH]c5c3)[C@H](C4)C2(C)C)CC1 [Example 269, [(6R,10S)-2-(1-Acetyl-piperidin-4-yl)-5,6,7,8,9,10-hexahydro-10,12,12-trimethyl-6,10-methano-imidazo[5,4-i][3]benzazocin-7-yl]-(3H-benzoimidazol-5-yl)-methanone] here?
A: The IC50 was 63 nM.

Q: Which IC50 does the source give for Cc1[nH]c2ccccc2c1C(=O)N1CC[C@@]2(C)c3cccc(O)c3C[C@@H]1C2(C)C [Example 197, [(2R,6S)-10-Hydroxy-6,11,11-trimethyl-1,2,5,6-tetrahydro-4H-2,6-methano-benzo[d]azocin-3-yl]-(2-methyl-1H-indol-3-yl)-methanone] here?
A: Its IC50 is 3830 nM.

Q: How did the IC50 turn out when CC1(C)[C@H]2Cc3c(O)cccc3[C@]1(C)CCN2C(=O)c1ccncn1 [Example 129, [(2R,6S)-10-Hydroxy-6,11,11-trimethyl-1,2,5,6-tetrahydro-4H-2,6-methano-benzo[d]azocin-3-yl]-pyrimidin-4-yl-methanone] was run?
A: The IC50 was 5850 nM.

Q: How did the IC50 turn out when O=C(c1ccc2nc[nH]c2c1)N1CCC2CC1Cc1ccccc12 (stereo not shown) [Example 60, (3H-Benzoimidazol-5-yl)-(1,2,5,6-tetrahydro-4H-2,6-methano-benzo[d]azocin-3-yl)-methanone] was run?
A: Its IC50 is 228 nM.

Q: With Cc1ncc(-c2ccc3c(c2)[C@]2(C)CCN(C(=O)c4ccc5nc[nH]c5c4)[C@H](C3)[C@H]2C)cn1 [Example 315, (3H-Benzoimidazol-5-yl)-[(2R,6R,11S)-6,11-dimethyl-8-(2-methyl-pyrimidin-5-yl)-1,2,5,6-tetrahydro-4H-2,6-methano-benzo[d]azocin-3-yl]-methanone] as the molecule, how does the IC50 read?
A: The IC50 was 61 nM.

Same assay, conditions: 1 hour at 37° C., pH 6.0, NADPH 200 μM, cortisone 80 nM, inhibition relative to carbenoxolone signal, read-out: 11β-HSD IC50

Q: For COc1ccc2c(c1)C1CCN(C(=O)c3ccc4nc[nH]c4c3)C2C1 (stereo not shown) [Example 99, (3H-Benzoimidazol-5-yl)-(4-methoxy-9-aza-tricyclo[6.3.1.0*2,7*]dodeca-2,4,6-trien-9-yl)-methanone], which IC50 is on record?
A: The IC50 was 285 nM.
